How the values were obtained:
[1] = system: C. parvum; experiment: DNA replication assay (EdU incorporation); assay type: cell-based, Cryptosporidium parvum; settings: compound at EC90; for DNA Synthesis Assay: Mean % Inhibition of EdU-labeling (normalized to parasite numbers), Average: average of replicates; for DNA Synthesis Assay: Mean % Inhibition of EdU-labeling (normalized to parasite numbers), Replicate 1: single replicate 1; for DNA Synthesis Assay: Mean % Inhibition of EdU-labeling (normalized to parasite numbers), Replicate 2: single replicate 2; for DNA Synthesis Assay: Mean % Inhibition of EdU-labeling (normalized to parasite numbers), Replicate 3: single replicate 3; for DNA Synthesis Assay: Mean % Inhibition of EdU-labeling (normalized to parasite numbers), Replicate 4: single replicate 4; for DNA Synthesis Assay: Mean % Inhibition of EdU-labeling (normalized to parasite numbers), Replicate 5: single replicate 5; for DNA synthesis: yes/no grouping by phenotypic assay result
Text: Following cell invasion, Cryptosporidium trophozoites grow and multiply to give rise to multinucleated type I meronts (Fig. 3a). The thymidine analog 5-ethynyl-2′-deoxyuridine (EdU) is efficiently incorporated into newly synthesized DNA, and can be detected using click chemistry. We used EdU to measure parasite intracellular DNA replication, as a surrogate for the more complex phenotype of intracellular growth and division. The approach for differentially labeling newly synthesized parasite DNA compared to host cell DNA was to take advantage of the fact that C. parvum replicates more quickly than the nearly confluent host cells. Thus, by adding EdU shortly before egress, it was possible to preferentially label replicating parasites (Fig. 3b, c). DNA staining with Hoechst labeled all of the host and parasite DNA, making it challenging to visualize and quantify parasite DNA. A simple DNA stain would also not distinguish pre-existing DNA from newly synthesized DNA (Fig. 3c). In contrast, EdU labeling only occurred with incorporation into newly synthesized DNA. Incorporated EdU was then easily stained for immunofluorescence and labeled parasites were quantified using high-content microscopy and an NIH ImageJ macro (Fig. 3c, DMSO condition). The […] hydroxyurea (10 mM), a known inhibitor of DNA replication, was used as a positive control for assay validation. […] Compounds with activity in this assay cannot be concluded to specifically target DNA replication, which is a complex phenotype.
Confluent HCT-8 cell monolayers in glass bottom plates were infected with C. parvum, and compounds were added at EC90 following invasion. At 9 h post-infection, 10 µM EdU was added, followed by incubation for another 2 h, and then washing, fixing, and staining for microscopy. […] 40 × dry objective (NA = 0.7); scale = 5 µm. Arrows indicate selected parasites with EdU-labeled DNA. d Quantification of EdU incorporation. […] Data are mean and SD of 2–5 biological replicates.
After incubation of cells with EdU for 2 h, cells were washed 3 times with PBS-D-gal and then fixed with PBS containing 4% PFA. Cells were then permeabilized and stained for EdU using the Click-iT® assay kit (Thermo Fisher Scientific, catalog# C10340) as per the manufacturer’s instructions. Cells were then imaged by focusing on parasites (note that the host cell nuclei are in a different focal plane) using a 40 × dry objective (0.7 NA) and EdU, and lectin numbers quantified using ImageJ software and the custom macro in Supplementary Method 1.

[2] = system: C. parvum; assay type: cell-based, Cryptosporidium parvum; settings: compound at EC90; for Invasion Assay: Mean % Inhibition (parasites), Average: average of replicates; for Invasion Assay: Mean % Inhibition (parasites), Replicate 1a: single biological replicate 1; for Invasion Assay: Mean % Inhibition (parasites), Replicate 2a: single biological replicate 2; for Sporozoite invasion: yes/no grouping by phenotypic assay result
Procedure: The first step in infection is host cell invasion, which involves a complex process encompassing oocyst excystation, parasite motility, adhesion, and parasitophorous vacuole formation (Fig. 2a). Our strategy to assay for compounds affecting invasion was simply to expose C. parvum to compounds immediately after triggering excystation and throughout the invasion process, and then enumerate the parasite vacuoles after 3 h, prior to allowing the parasites to replicate (summarized in Fig. 2b).
Fig. 2 Invasion Assay. a Overview of life cycle stage investigated during the invasion assay. Representative TEM images of a C. parvum oocyst and HCT-8 cell shortly after infection (Scale bar = 500 nm). b Schematic of experimental design. […] Each point represents the mean and SD of at least two biological replicates with four technical replicates per experiment.
C. parvum invasion inhibition was measured by modifying the 48 h growth inhibition assay described above. […] In parallel, Iowa strain oocysts were excysted. […] Assay plates were incubated at 37 °C and 5% CO2 for 3 h.

[3] = system: C. parvum; experiment: Egress, motility, reinvasion assay (PV ratio); settings: compound at EC90; for Egress and Reinvasion Assay: Mean PV ratios (19.5h:6h), Average: average of replicates; for Egress and Reinvasion Assay: Mean PV ratios (19.5h:6h), Replicate 1a: single replicate 1; for Egress and Reinvasion Assay: Mean PV ratios (19.5h:6h), Replicate 2a: single replicate 2; for Egress and Reinvasion Assay: Mean PV ratios (19.5h:6h), Replicate 3a: single replicate 3; for Egress and Reinvasion Assay: Mean PV ratios (19.5h:6h), Replicate 4a: single replicate 4
Procedure: For quantification of parasitophorous vacuoles over time, HCT-8 cells were grown to greater than 90% confluence in 384-well plates and infected with 11,000 oocysts after triggering excystation.

SMILES | DNA Synthesis Assay: Mean % Inhibition of EdU-labeling (normalized to parasite numbers), Average [1] | DNA Synthesis Assay: Mean % Inhibition of EdU-labeling (normalized to parasite numbers), Replicate 1 [1] | DNA Synthesis Assay: Mean % Inhibition of EdU-labeling (normalized to parasite numbers), Replicate 2 [1] | DNA Synthesis Assay: Mean % Inhibition of EdU-labeling (normalized to parasite numbers), Replicate 3 [1] | DNA Synthesis Assay: Mean % Inhibition of EdU-labeling (normalized to parasite numbers), Replicate 4 [1] | DNA Synthesis Assay: Mean % Inhibition of EdU-labeling (normalized to parasite numbers), Replicate 5 [1] | DNA Synthesis Assay: Mean % Inhibition of EdU-labeling (normalized to parasite numbers), Replicate 6 ([1]; single replicate 6) | DNA synthesis [1] | Invasion Assay: Mean % Inhibition (parasites), Average [2] | Invasion Assay: Mean % Inhibition (parasites), Replicate 1a [2] | Invasion Assay: Mean % Inhibition (parasites), Replicate 2a [2] | Sporozoite invasion [2] | Egress and Reinvasion Assay: Mean PV ratios (19.5h:6h), Average [3] | Egress and Reinvasion Assay: Mean PV ratios (19.5h:6h), Replicate 1a [3] | Egress and Reinvasion Assay: Mean PV ratios (19.5h:6h), Replicate 2a [3] | Invasion Assay: Mean % Inhibition (parasites), Replicate 3a ([2]; single biological replicate 3) | Invasion Assay: Mean % Inhibition (parasites), Replicate 4a ([2]; single biological replicate 4) | Egress and Reinvasion Assay: Mean PV ratios (19.5h:6h), Replicate 3a [3] | Egress and Reinvasion Assay: Mean PV ratios (19.5h:6h), Replicate 4a [3] | DNA synthesis (mean % inhibition) ([1]; EdU added 9 h post-infection for 2 h)
O=c1[nH]c(=O)n([C@H]2C[C@H](O)[C@@H](CO)O2)cc1F [Floxuridine] | 20.42% | 15.13% | 27.54% | -10.47% | 28.26% | 37.17% | 24.87% | no | -28.03% | -30% | -26% | no | 0.74 | 0.67 | 0.80 |  |  |  |  | 
c1ccc(CNc2nc(Nc3ccccc3)nc3ccccc23)cc1 [B-1] | -31.43% | -48.95% | -39.64% | -5.71% |  |  |  | no | 56.43% | 55% | 63% | yes | 1.58 | 1.28 | 1.59 | 42% | 66% | 1.80 | 1.65 | 
CCOc1ccc(Cl)c2c1B(O)OC2CN (centres unmarked) [AN6426] | 86.81% | 80.80% | 89.13% | 90.50% |  |  |  |  | -16.44% | -18% | -15% |  | 0.93 | 1.07 | 1.05 |  |  | 0.86 | 0.75 | 
CC(=O)O[C@@]12CO[C@@H]1C[C@H](O)[C@@]1(C)C(=O)[C@H](O)C3=C(C)[C@@H](OC(=O)[C@H](O)[C@@H](NC(=O)OC(C)(C)C)c4ccccc4)C[C@@](O)([C@@H](OC(=O)c4ccccc4)[C@H]21)C3(C)C [Docetaxel] | 16.66% | 33.42% | -0.10% |  |  |  |  |  | -8.63% | -1.34% | -16% |  | 1.76 | 1.96 | 2.25 |  |  | 1.23 | 1.60 | 
[H]/N=C(/NCCCCC)N/N=C/c1c[nH]c2ccc(OC)cc12 [Tegaserod] | -6.72% | -11.69% | -25.63% | 17.15% |  |  |  | no | 13.93% | 26% | 2% | no | 1.01 | 0.96 | 1.06 |  |  |  |  | 
COc1ccc(Nc2nc(NCc3ccccc3Cl)c3ccccc3n2)cc1Cl [B-13] | -3.46% | 5.94% | -6.60% | -9.73% |  |  |  | no | 82.51% | 92% | 73% | yes | 1.42 | 1.37 | 1.48 |  |  |  |  | 
O=C(Nc1ccc(Cl)c(Cl)c1)N1CCN(c2ccc3nncn3n2)CC1 [D-28] | 3.38% | 14.86% | -8.10% |  |  |  |  |  | -13.23% | -5% | -22% |  | 1.28 | 1.01 | 1.19 |  |  | 1.91 | 1.01 | 
Oc1c(C(Nc2ccccn2)c2cccc(Oc3ccccc3)c2)ccc2cccnc12 (centres unmarked) [A-2] | 100.00% | 100% | 100% |  |  |  |  | yes | -15.19% | -13% | -17% | no | 0.69 | 0.67 | 0.71 |  |  |  |  | 100.00%
C[C@H]1CCC[C@H](C[C@H]2Cc3cc(O)cc(O)c3C(=O)O2)O1 [Cladosporin] | 93.15% | 89.75% | 94.02% | 89.08% | 93.50% | 99.40% |  |  | -6.64% | 5.41% | -19% |  | 0.68 | 0.52 | 0.83 |  |  |  |  | 
